How the values were obtained:
A549 cells = assay: in vitro antiproliferation assay, A549 (lung); format: cell-based; conditions: A549 (lung) cells
In short: (§1)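 Standard in vitro antiproliferation assays on tumour cell lines, including A549 and H1299 (both lung); IC50 values determined.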

H1299 cells = assay: in vitro antiproliferation assay, H1299 (lung); format: cell-based; conditions: H1299 (lung) cells
In short: as §1

[1] = Table 7, in vitro antiproliferation

| Structure (SMILES) | IC50 (A549 cells; in vitro antiproliferation) | IC50 (H1299 cells; in vitro antiproliferation) | other results |
| --- | --- | --- | --- |
| CCOC(=O)c1cc2cccc(Nc3ncc(F)c(NC4CCC4)n3)c2[nH]1 [compound 678] |  |  | IC50 (A549 cells; [1]): > 20 µM; IC50 (H1299 cells; [1]): > 20 µM |
| CNC(=O)COc1cccc(Nc2nc(Nc3ccc(OCCN(C)C)cc3)ncc2F)c1 [compound 694] | ≤ 20 µM | ≤ 20 µM |  |
| CNC(=O)COc1cccc(Nc2ncc(F)c(Nc3ccc(Cl)c(Cl)c3)n2)c1 [compound 697] | ≤ 20 µM | ≤ 20 µM |  |
| Fc1cnc(Nc2ccc(C(F)(F)F)cc2)nc1Nc1ccc(C(F)(F)F)cc1 [compound 701] | > 20 µM | > 20 µM |  |
| COc1ccc(Nc2ncc(F)c(Nc3ccc(OC)cc3)n2)cc1 [compound 702] | ≤ 20 µM | ≤ 20 µM |  |
| CCOc1ccc(Nc2ncc(F)c(Nc3ccc(OCC)cc3)n2)cc1 [compound 704] | ≤ 20 µM | ≤ 20 µM |  |
| CCOc1ccc(Nc2ncc(F)c(Nc3ccc(OC)c(OC)c3)n2)cc1 [compound 713] | ≤ 20 µM | ≤ 20 µM |  |
| CC(C)(C)c1ccc(Nc2ncc(F)c(Nc3ccc(C(C)(C)C)cc3)n2)cc1 [compound 718] | > 20 µM | > 20 µM |  |
| Fc1ccc(Nc2ncc(F)c(Nc3ccc(F)c(Cl)c3)n2)cc1Cl [compound 719] | > 20 µM | > 20 µM |  |
| Fc1ccc(Nc2ncc(F)c(Nc3ccc(F)cc3)n2)cc1 [compound 720] | ≤ 20 µM | > 20 µM |  |
| Cc1ccc(Nc2ncc(F)c(Nc3ccc(C)cc3)n2)cc1 [compound 721] | > 20 µM | > 20 µM |  |
| COC(=O)COc1cccc(Nc2ncc(F)c(Nc3cccc(OCC(=O)OC)c3)n2)c1 [compound 724] | > 20 µM | ≤ 20 µM |  |
| CNC(=O)COc1cc(Nc2ncc(F)c(Nc3ccc(C)c(OCC(=O)NC)c3)n2)ccc1C [compound 759] | ≤ 20 µM | ≤ 20 µM |  |
| COc1cc(Nc2nc(Nc3cccc(O)c3)ncc2F)cc(OC)c1 [compound 768] | ≤ 20 µM | ≤ 20 µM |  |
| CCOC(=O)COc1cccc(Nc2nc(Nc3cc(OC)cc(OC)c3)ncc2F)c1 [compound 769] | > 20 µM | > 20 µM |  |
| CCOc1ccc(Nc2nc(Nc3cccc(OCC(=O)NC)c3)ncc2F)cc1 [compound 772] | ≤ 20 µM | ≤ 20 µM |  |
| Oc1cccc(Nc2nc(Nc3ccc(OC(F)(F)F)c(Cl)c3)ncc2F)c1 [compound 781] | ≤ 20 µM | ≤ 20 µM |  |
| C=CCNC(=O)COc1cccc(Nc2nc(Nc3cccc(OCC(=O)NC)c3)ncc2F)c1 [compound 791] | ≤ 20 µM | ≤ 20 µM |  |
| CNC(=O)COc1cc(O)cc(Nc2ncc(F)c(Nc3cccc(O)c3)n2)c1 [compound 797] | ≤ 20 µM | > 20 µM |  |
| CNC(=O)COc1cc(Nc2ncc(F)c(Nc3cccc(O)c3)n2)cc(OCC(=O)NC)c1 [compound 798] | > 20 µM | > 20 µM |  |
| COc1ccc(Nc2ncc(F)c(Nc3ccc(OC)c(Cl)c3)n2)cc1Cl [compound 800] | ≤ 20 µM | > 20 µM |  |
| COc1ccc(Nc2nc(Nc3cc(C)c(OC)c(Cl)c3)ncc2F)cc1Cl [compound 802] | > 20 µM | > 20 µM |  |
| COc1cc(Nc2ncc(F)c(Nc3ccc(N4CCOCC4)c(Cl)c3)n2)cc(C(F)(F)F)c1 [compound 806] | ≤ 20 µM | ≤ 20 µM |  |

| Structure (SMILES) | IC50 (A549 cells; in vitro antiproliferation) | IC50 (H1299 cells; in vitro antiproliferation) | other results |
| --- | --- | --- | --- |
| COc1ccc(Nc2nc(Nc3cc(Cl)cc(Cl)c3)ncc2F)cc1Cl [compound 808] | ≤ 20 µM | ≤ 20 µM |  |
| COc1cc(Nc2ncc(F)c(Nc3ccc(OC)c(Cl)c3)n2)cc(C(F)(F)F)c1 [compound 810] | ≤ 20 µM | > 20 µM |  |
| COc1ccc(Nc2nc(Nc3cc(C)c(C)c(C)c3)ncc2F)cc1Cl [compound 811] | ≤ 20 µM | > 20 µM |  |
| COc1cc(Nc2ncc(F)c(Nc3cccc(OC(F)(F)F)c3)n2)cc(OC)c1 [compound 812] | ≤ 20 µM | ≤ 20 µM |  |
| Cc1cc(C)cc(Nc2ncc(F)c(Nc3cccc(OC(F)(F)F)c3)n2)c1 [compound 813] | > 20 µM | > 20 µM |  |
| COc1cc(Nc2ncc(F)c(Nc3cc(C)cc(C)c3)n2)cc(OC)c1 [compound 814] | ≤ 20 µM | ≤ 20 µM |  |
| COc1cc(Nc2ncc(F)c(Nc3cc(C)cc(C)c3)n2)cc(C(F)(F)F)c1 [compound 815] | ≤ 20 µM | ≤ 20 µM |  |
| Cc1cc(C)cc(Nc2nc(Nc3cc(C)cc(C(F)(F)F)c3)ncc2F)c1 [compound 816] | ≤ 20 µM | > 20 µM |  |
| COc1cc(Nc2nc(Nc3cc(C)cc(C)c3)ncc2F)cc(C(F)(F)F)c1 [compound 817] | ≤ 20 µM | ≤ 20 µM |  |
| COc1cc(Nc2ncc(F)c(Nc3cc(OC)cc(C(F)(F)F)c3)n2)cc(OC)c1 [compound 818] | ≤ 20 µM | ≤ 20 µM |  |
| COc1cc(Nc2ncc(F)c(Nc3cc(OC)cc(C(F)(F)F)c3)n2)cc(C(F)(F)F)c1 [compound 819] | ≤ 20 µM | ≤ 20 µM |  |
| COc1cc(Nc2nc(Nc3cc(C)cc(C(F)(F)F)c3)ncc2F)cc(C(F)(F)F)c1 [compound 820] | > 20 µM | ≤ 20 µM |  |
| COc1cc(Nc2nc(Nc3cc(OC)c(OC)c(OC)c3)ncc2F)cc(C(F)(F)F)c1 [compound 821] | ≤ 20 µM | ≤ 20 µM |  |
| COc1cc(Nc2nc(Nc3cc(C)c(O)c(Cl)c3)ncc2F)cc(C(F)(F)F)c1 [compound 822] | ≤ 20 µM | ≤ 20 µM |  |
| COc1cc(Nc2nc(Nc3cc(Cl)cc(Cl)c3)ncc2F)cc(C(F)(F)F)c1 [compound 823] | ≤ 20 µM | ≤ 20 µM |  |
| COc1cc(Nc2nc(Nc3cc(CO)cc(CO)c3)ncc2F)cc(C(F)(F)F)c1 [compound 824] | ≤ 20 µM | < 20 µM |  |
| COc1cc(Nc2nc(Nc3cc(C)c(Cl)c(C)c3)ncc2F)cc(C(F)(F)F)c1 [compound 825] | ≤ 20 µM | ≤ 20 µM |  |
| COc1ccc(Nc2nc(Nc3cc(Cl)c(O)c(Cl)c3)ncc2F)cc1Cl [compound 828] | ≤ 20 µM | ≤ 20 µM |  |
| Oc1c(Cl)cc(Nc2ncc(F)c(Nc3ccc(OC(F)(F)F)c(Cl)c3)n2)cc1Cl [compound 829] | ≤ 20 µM | ≤ 20 µM |  |
| COc1ccc(Nc2nc(Nc3cc(Cl)c(OC)c(Cl)c3)ncc2F)cc1Cl [compound 831] | > 20 µM | > 20 µM |  |
| COc1c(Cl)cc(Nc2ncc(F)c(Nc3ccc(OC(F)(F)F)c(Cl)c3)n2)cc1Cl [compound 832] | ≤ 20 µM | > 20 µM |  |
| COc1c(Cl)cc(Nc2ncc(F)c(Nc3ccc(Cl)c(Cl)c3)n2)cc1Cl [compound 834] | ≤ 20 µM | ≤ 20 µM |  |
| COc1cc(Nc2nc(Nc3cc(CO)cc(CO)c3)ncc2F)cc(OC)c1 [compound 842] | ≤ 20 µM | ≤ 20 µM |  |

| Structure (SMILES) | IC50 (A549 cells; in vitro antiproliferation) | IC50 (H1299 cells; in vitro antiproliferation) | other results |
| --- | --- | --- | --- |
| COc1ccc(Nc2nc(Nc3cc(CO)cc(CO)c3)ncc2F)cc1Cl [compound 843] | ≤ 20 µM | ≤ 20 µM |  |
| OCc1cc(CO)cc(Nc2ncc(F)c(Nc3ccc(Cl)c(Cl)c3)n2)c1 [compound 844] | ≤ 20 µM | ≤ 20 µM |  |
| COc1cc(Nc2nc(Nc3cc(OC)cc(C(F)(F)F)c3)ncc2F)cc(OC)c1 [compound 849] | ≤ 20 µM | ≤ 20 µM |  |
| CNC(=O)COc1cccc(Nc2ncc(F)c(N(C)c3cc(OC)cc(OC)c3)n2)c1 [compound 850] | > 20 µM | > 20 µM |  |
| COc1cc(Nc2ncc(F)c(N(C)c3cc(OC)cc(OC)c3)n2)cc(OC)c1 [compound 852] | ≤ 20 µM | ≤ 20 µM |  |
| COc1cc(OC)cc(N(C)c2nc(Nc3ccc(OC)c(Cl)c3)ncc2F)c1 [compound 853] | > 20 µM | > 20 µM |  |
| COc1cc(OC)cc(N(C)c2nc(Nc3ccc(Cl)c(OC)c3)ncc2F)c1 [compound 854] | > 20 µM | > 20 µM |  |
| COc1cc(Nc2ncc(F)c(Nc3ccc(OC)c(OC)c3)n2)cc(OC)c1 [compound 856] | ≤ 20 µM | ≤ 20 µM |  |
| COc1cc(Nc2nc(Nc3cccc(N4CCN(C(C)=O)CC4)c3)ncc2F)cc(OC)c1 [compound 861] | ≤ 20 µM | ≤ 20 µM |  |
| COc1ccc(Nc2nc(Nc3cccc(N4CCN(C(C)=O)CC4)c3)ncc2F)cc1OC [compound 862] | ≤ 20 µM | ≤ 20 µM |  |
| COc1ccc(Nc2nc(Nc3ccc(N4CCN(C(C)=O)CC4)cc3)ncc2F)cc1OC [compound 863] | ≤ 20 µM | ≤ 20 µM |  |
| COc1ccc(N(C)c2nc(Nc3cc(C)cc(C)c3)ncc2F)cc1OC [compound 864] | ≤ 20 µM | ≤ 20 µM |  |
| COc1cc(Nc2ncc(F)c(N(C)c3ccc(OC)c(OC)c3)n2)cc(OC)c1 [compound 865] | ≤ 20 µM | ≤ 20 µM |  |
| COc1cc(Nc2nc(Nc3ccc(N4CCN(C(C)=O)CC4)cc3)ncc2F)cc(OC)c1 [compound 866] | ≤ 20 µM | ≤ 20 µM |  |
| COc1ccc(N(C)c2nc(Nc3cccc(-c4cnco4)c3)ncc2F)cc1OC [compound 867] | > 20 µM | ≤ 20 µM |  |
| CNC(=O)COc1cccc(Nc2ncc(F)c(N(C)c3ccc(OC)c(OC)c3)n2)c1 [compound 870] |  |  | IC50 (A549 cells; antiproliferation): > 20 µM; IC50 (H1299 cells; antiproliferation): > 20 µM |
| CNC(=O)c1ccc(Nc2ncc(F)c(Nc3ccc(OC)c(OC)c3)n2)cc1Cl [compound 871] |  |  | IC50 (A549 cells; antiproliferation): ≤ 20 µM; IC50 (H1299 cells; antiproliferation): ≤ 20 µM |
| CNC(=O)c1ccc(Nc2ncc(F)c(Nc3cc(OC)cc(OC)c3)n2)cc1Cl [compound 872] |  |  | IC50 (A549 cells; antiproliferation): ≤ 20 µM; IC50 (H1299 cells; antiproliferation): ≤ 20 µM |
| CNC(=O)c1ccc(Nc2ncc(F)c(N(C)c3ccc(OC)c(OC)c3)n2)cc1Cl [compound 875] |  |  | IC50 (A549 cells; antiproliferation): ≤ 20 µM; IC50 (H1299 cells; antiproliferation): ≤ 20 µM |
| CNS(=O)(=O)c1ccc(Nc2ncc(F)c(Nc3ccc(OC)c(OC)c3)n2)cc1OC [compound 879] |  |  | IC50 (A549 cells; antiproliferation): ≤ 20 µM; IC50 (H1299 cells; antiproliferation): ≤ 20 µM |
| CNS(=O)(=O)c1ccc(Nc2ncc(F)c(Nc3cc(OC)cc(OC)c3)n2)cc1OC [compound 880] |  |  | IC50 (A549 cells; antiproliferation): ≤ 20 µM; IC50 (H1299 cells; antiproliferation): ≤ 20 µM |
| CNS(=O)(=O)c1ccc(Nc2nc(Nc3cc(OC)cc(OC)c3)ncc2F)cc1OC [compound 884] |  |  | IC50 (A549 cells; antiproliferation): ≤ 20 µM; IC50 (H1299 cells; antiproliferation): ≤ 20 µM |
